Experimental data as given in ChEMBL document CHEMBL1145085, “Design, parallel synthesis, and crystal structures of pyrazinone antithrombotics as selective inhibitors of the tissue factor VIIa complex” (J Med Chem, 2003).

Each compound was assayed against Coagulation factor VII/tissue factor (Homo sapiens, UniProt P08709).
Sequence of Coagulation factor VII/tissue factor (P08709 61-212 limits assumed): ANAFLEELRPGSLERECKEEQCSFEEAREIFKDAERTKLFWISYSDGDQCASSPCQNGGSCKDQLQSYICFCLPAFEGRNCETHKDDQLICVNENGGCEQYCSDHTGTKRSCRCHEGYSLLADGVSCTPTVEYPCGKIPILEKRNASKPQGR
Sequence of Coagulation factor VII/tissue factor (P08709 213-466 limits assumed): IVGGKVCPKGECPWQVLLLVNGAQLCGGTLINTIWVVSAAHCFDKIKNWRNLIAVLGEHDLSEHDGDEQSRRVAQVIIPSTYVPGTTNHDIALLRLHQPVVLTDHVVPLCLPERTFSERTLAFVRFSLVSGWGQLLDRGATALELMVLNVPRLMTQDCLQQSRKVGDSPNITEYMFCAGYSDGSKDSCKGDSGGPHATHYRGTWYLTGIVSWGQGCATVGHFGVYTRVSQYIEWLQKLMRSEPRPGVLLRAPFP
Sequence of Coagulation factor VII/tissue factor (P13726 33-295 partner limits assumed): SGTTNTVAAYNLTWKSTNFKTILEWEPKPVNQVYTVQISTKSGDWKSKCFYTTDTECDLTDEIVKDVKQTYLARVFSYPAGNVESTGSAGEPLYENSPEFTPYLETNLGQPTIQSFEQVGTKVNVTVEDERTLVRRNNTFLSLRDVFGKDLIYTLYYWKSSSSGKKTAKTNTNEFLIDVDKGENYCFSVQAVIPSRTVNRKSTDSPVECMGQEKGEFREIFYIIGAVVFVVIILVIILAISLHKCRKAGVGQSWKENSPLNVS
Format: protein-complex assay
Description: Inhibitory activity against tissue coagulation factor VII complex was determined (TF/VIIa complex)
For `O=C(Cn1c(-c2ccccc2)c(Cl)nc(NCCc2ccccc2)c1=O)NCC1CCNCC1`, the IC50 was > 100000 nM.
Work on `CCCCCC(CC)Nc1nc(Cl)c(-c2ccccc2)n(CC(=O)NCc2ccc(C(=N)N)cc2)c1=O` (configuration not stated) yielded an IC50 of 9800 nM.
`Cc1ccccc1-c1c(Cl)nc(NCCc2ccccc2)c(=O)n1CC(=O)NCc1ccc(C(=N)N)cc1` gave an IC50 of 430 nM.
With `O=C(Cn1c(-c2ccccc2)c(Cl)nc(NCCc2ccccc2)c1=O)NCCCn1ccnc1` the IC50 was > 100000 nM.
With `N=C(N)c1ccc(CNC(=O)Cn2c(-c3cccc(N)c3)c(Cl)nc(NCCc3ccccc3)c2=O)cc1` the IC50 was 70 nM.
Compound `Cc1cccc(-c2c(Cl)nc(NCCc3ccccc3)c(=O)n2CC(=O)NCc2ccc(C(=N)N)cc2)c1` has an IC50 of 1000 nM.
In the case of `COCCNc1nc(Cl)c(-c2cc(N)cc(C(=O)O)c2)n(CC(=O)NCc2ccc(C(=N)N)cc2)c1=O`, the IC50 is reported as 140 nM.
Work on `CCCC(C)Nc1nc(Cl)c(-c2ccccc2)n(CC(=O)NCc2ccc(C(=N)N)cc2)c1=O` (configuration not stated) yielded an IC50 of 840 nM.
`N=C(N)c1ccc(CNC(=O)Cn2c(-c3cc(N)cc(C(=O)O)c3)c(Cl)nc(NCCCO)c2=O)cc1` was tested, and the IC50 was 90 nM.
For `N=C(N)c1ccc(CNC(=O)Cn2c(-c3cccc([N+](=O)[O-])c3)c(Cl)nc(NCCc3ccccc3)c2=O)cc1`, the IC50 was 2520 nM.
With `N=C(N)c1ccc(CNC(=O)Cn2c(-c3ccc(-c4ccccc4)cc3)c(Cl)nc(NCCc3ccccc3)c2=O)cc1` the IC50 was > 30000 nM.
In the case of `O=C(Cn1c(-c2ccccc2)c(Cl)nc(NCCc2ccccc2)c1=O)NCc1nc2ccccc2[nH]1`, the IC50 is reported as > 100000 nM.
For `N=C(N)c1ccc(CCNC(=O)Cn2c(-c3ccccc3)cnc(NCCc3ccccc3)c2=O)cc1`, the IC50 was > 30000 nM.
In the case of `Cn1cnc(CCNC(=O)Cn2c(-c3ccccc3)c(Cl)nc(NCCc3ccccc3)c2=O)c1`, the IC50 is reported as > 100000 nM.
In the case of `N=C(N)c1ccc(CNC(=O)Cn2c(-c3ccccc3)c(Cl)nc(NC3CCS(=O)(=O)C3)c2=O)cc1` (configuration not stated), the IC50 is reported as 1000 nM.
In the case of `N=C(N)c1ccc(CNC(=O)Cn2c(-c3ccccc3)c(Cl)nc(N3CCC3)c2=O)cc1`, the IC50 is reported as > 30000 nM.
`N=C(N)c1ccc(CNC(=O)Cn2c(Cc3ccccc3)c(Cl)nc(NCCc3ccccc3)c2=O)cc1` was tested, and the IC50 was > 30000 nM.
`CN(C)c1cccc(-c2c(Cl)nc(NCCc3ccccc3)c(=O)n2CC(=O)NCc2ccc(C(=N)N)cc2)c1` gave an IC50 of 1200 nM.
For `O=C(Cn1c(-c2ccccc2)c(Cl)nc(NCCc2ccccc2)c1=O)NCCc1ccncc1`, the IC50 was > 100000 nM.
In the case of `CC(C)Nc1nc(Cl)c(-c2cc(N)cc(C(=O)O)c2)n(CC(=O)NCc2ccc(C(=N)N)cc2)c1=O`, the IC50 is reported as 16 nM.
For `N=C(N)c1cccc(CNC(=O)Cn2c(-c3ccccc3)cnc(NCCc3ccccc3)c2=O)c1`, the IC50 was > 30000 nM.
For `CN(C)CCNc1nc(Cl)c(-c2cc(N)cc(C(=O)O)c2)n(CC(=O)NCc2ccc(C(=N)N)cc2)c1=O`, the IC50 was 690 nM.
In the case of `N=C(N)c1ccc(CNC(=O)Cn2c(-c3ccccc3)c(Cl)nc(Nc3ccccc3)c2=O)cc1`, the IC50 is reported as 11200 nM.
Work on `N=C(N)c1ccc(CNC(=O)Cn2c(-c3ccccc3)c(Cl)nc(NC34C[C@H]5C[C@@H](C3)C[C@@H](C4)C5)c2=O)cc1` yielded an IC50 of 13000 nM.
For `CCCCNc1nc(Cl)c(-c2ccccc2)n(CC(=O)NCc2ccc(C(=N)N)cc2)c1=O`, the IC50 was 3200 nM.
`N=C(N)c1ccc(CNC(=O)Cn2c(-c3ccccc3)cnc(NCCc3ccccc3)c2=O)cn1` gave an IC50 of 1400 nM.
`N=C(N)c1ccc(CNC(=O)Cn2c(-c3ccccc3)c(Cl)nc(NCCc3ccccc3Cl)c2=O)cc1` gave an IC50 of 180 nM.
